Measured values from patent US11345701B1, “KRAS mutant protein inhibitors” (Jacobio Pharmaceuticals Co., Ltd., priority 2021, dated 2022).

Test: Cynomolgus monkey pharmacokinetic study
Type: in vivo
Conditions: for CL / VSS / AUC0-24h / Cmax / Oral BA (F %): cynomolgus monkey; for CL / VSS: 1 mg/kg, iv; for AUC0-24h / Cmax / Oral BA (F %) / AUC0-24 h relative to the control compound Amg-510: 3 mg/kg, po
Experimental: The purpose of this study was to evaluate the pharmacokinetic properties of compounds in cynomolgus monkey following single dose administration. The day before administration, monkeys were fasted overnight and free access to water. Four monkeys are needed for each compound and the four monkeys were divided into two groups, group A and group B (one male (♂) and one female (♀) in each group). Monkeys in group A were treated with a single 1 mg/kg dose of compound (iv). Monkeys in group B were treated with a single 3 mg/kg dose of compound (po). For monkeys in group A, blood samples were collected at pre-dose, and at the time point of 0.083, 0.25, 0.5, 1, 2, 4, 6, 8 and 24 h post-dose. For monkeys in group B, blood samples were collected at pre-dose, and at the time point of 0.25, 0.5, 1, 2, 4, 6, 8 and 24 h post-dose. Blood samples were placed on ice until centrifugation to obtain plasma samples. The plasma samples were stored at −80° C. until analysis. The concentration of compound in plasma samples was determined using a LC-MS/MS method.

C=CC(=O)N1CCN(c2nc(=O)n(-c3c(C)ccnc3C(C)C)c3nc(-c4c(N)c(F)c(F)c(F)c4F)c(F)cc23)[C@@H](C)C1 (atropisomer, axis not shown; (M)) [Compound 2-1, (M)-4-((S)-4-acryloyl-2-methylpiperazin-1-yl)-7-(2-amino-3,4,5,6-tetrafluorophenyl)-6-fluoro-1-(2-isopropyl-4-methylpyridin-3-yl)pyrido[2,3-d]pyrimidin-2(1H)-one]
CL (female): 8.20 mL/min/kg | VSS (female): 0.507 L/kg | AUC0-24h (female): 2494 ng·h/mL | Cmax (female): 1060 ng/mL | Oral BA (F %) (female): 41.2% | CL (male): 8.26 mL/min/kg | VSS (male): 0.555 L/kg | AUC0-24h (male): 3253 ng·h/mL | Cmax (male): 1580 ng/mL | Oral BA (F %) (male): 54.1% | AUC0-24 h relative to the control compound Amg-510 (female cynomolgus monkey): more than 10 times | AUC0-24 h relative to the control compound Amg-510 (male cynomolgus monkey): more than 15 times | Pharmacokinetic properties in words (monkey model): excellent pharmacokinetic properties
